Key:
[1] = tested on: cytochrome c oxidase in B. subtilis; assay: Chronoamperometry of drop-cast bacteria, turnover number per single bacterium; assay type: cell-based, Bacillus subtilis; conditions: B. subtilis grown on agar; current at 8 s; 37° C.
Method: (§1) For the localized electrochemical recognition of cytochrome c oxidases in bacteria, target cultures were immobilized onto a gold macroelectrode by drop-casting and immersed into a solution of PBS, containing 1.7 mM TMPD^+• (FIG. 3). The radical cation can be reduced electrochemically at the electrode to TMPD, providing the substrate for the target bacteria to oxidise and convert TMPD back to TMPD^+•. The chemical oxidation of TMPD to TMPD^+• can then be observed electrochemically.
A 3 mm (diameter) gold macroelectrode (Alvatek Ltd, UK) was used as the working electrode for all bioelectrochemical measurements. After polishing, sonication of the macroelectrode was applied for 2 minutes to assure removal of alumina powder from the electrode surface. Bacteria were immobilized onto the electrode by drop casting. […] Evaporation was monitored by eye and N2 flow was stopped the moment all liquid was evaporated. […]
As during drop-casting both living and dead bacteria in a solution are deposited at an electrode, flow cytometry measurements were performed to estimate the percentage of living cells in solution that contribute to the electrochemical signal (FIG. 7). […] Taking the electrochemical current during chronoamperometry (measurement point at 8 s), a turnover number was determined. […] As such, a turnover number per single bacterium (Tsb) could be calculated using the equation: […]

[2] = tested on: cytochrome c oxidase in E. coli; assay: as above; assay type: cell-based, Escherichia coli
Method: as §1
A 3 mm (diameter) gold macroelectrode (Alvatek Ltd, UK) was used as the working electrode for all bioelectrochemical measurements. After polishing, sonication of the macroelectrode was applied for 2 minutes to assure removal of alumina powder from the electrode surface. Bacteria were immobilized onto the electrode by drop casting. For this purpose, the macroelectrode was placed in an electrode holder inside a 50 mL falcon tube, keeping it in an upright position. Bacteria suspension was diluted so that all depositions consisted of 3 μL bacteria suspension representing monolayer concentrations of 0.5 to 30. The falcon tube was closed and the bacteria suspension dried under N2 flow. Evaporation was monitored by eye and N2 flow was stopped the moment all liquid was evaporated. The electrode was removed from the holder and was placed in the electrochemical set up. The electrochemical cell remained thermostated to 37° C. throughout the experiments.
Chronoamperometry was carried out immediately after drop-casting of bacteria to minimize cell death at the electrode. […]
E. coli bacteria, cultured under aerobic conditions, were then investigated. […] The enhanced electrochemical signal in the presence of E. coli can also be recorded during cyclic voltammetry. However, due to the small current range detected, scan rates as low as 2 mV s^−1 need to be applied in order to visualize the oxidation process of TMPD by the bacteria. […] Consequently, chronoamperometry measurements were chosen for quantitative analyses. […]

[3] = Cyclic voltammetry of TMPD-BF4 at gold macroelectrode with DigiSim simulation; assay type: physicochemical
Method: [formula] in which C is the concentration, Iss represents the steady state current, F is the Faraday constant, D is the diffusion coefficient and a is the radius of the electroactive surface of the microelectrode), and its electrochemical behaviour was analysed using cyclic voltammetry. […] Various scan rates, ranging from 30 to 300 mV s^−1, were applied. As the singly oxidized form of TMPD, the TMPD^+• radical cation can be reduced to TMPD and oxidized to TMPD^2+: TMPD^+•+e^− ? TMPD (1) TMPD^2++e^− ? TMPD^+• (2)
in which only the first redox reaction is fully reversible,[25] and will be the focus of this method. Using the commercial simulation software DigiSim® (Basi), theoretical curves were fitted to the experimental data.[26-30] […] A diffusion coefficient DTMPD-BF4 of 1.0×10^−5 cm^2 s^−1 was determined for a solution temperature of 37° C. and fixed in the DigiSim® program. Detailed information about the calculation of DTMPD-BF4 can be found below. Following the approach in the literature,[31] the redox reaction (1) was simulated to determine the Butler-Volmer kinetic parameters of TMPD^+• reduction at the macroelectrode and a fitting of the concentration-independent heterogeneous standard electrochemical rate constant (ks), as well as the standard electrode potential E0, was conducted. To account for minor solution changes related to the oxidation of TMPD by oxygen, the initial concentration ratio of TMPD to TMPD^+• was slightly adjusted for each scan without changing the overall shape or position of the simulated curves. This allowed an offset correction for the presented curves and a capacitive contribution of between 10 to 30 μF was attributed. From the simulations, the standard electrochemical rate constant ks was determined to be equal to or greater than 0.025 cm s^−1, and a standard electrode potential E0 of 0.013 (±0.001) V vs. SCE was determined. […]
A diffusion coefficient (DTMPD-BF4) of 1×10^−5 cm^2 s^−1 was found following the reversible Randles-Ševčík method. […] The diffusion coefficient was determined using the equation

CN(C)c1ccc(N(C)C)cc1 [TMPD, N,N,N′,N′-tetramethyl-para-phenylene diamine]
turnover number per single bacterium (Tsb) [1]: 9.8 (±0.3)×10^8 L mol^−1 s^−1
turnover number per single bacterium (Tsb) ([2]; E. coli grown aerobically (exponential phase)): 3.8 (±0.06)×10^8 L mol^−1 s^−1
turnover number per single bacterium (Tsb) ([2]; E. coli grown in broth to the stationary phase): 1.8 (±0.3)×10^9 L mol^−1 s^−1
turnover number per single bacterium (Tsb) ([2]; E. coli grown to the exponential phase (aerobic), current at 8 s): 3.8 (±0.06)×10^8 L mold s^−1

N,N,N′,N′-tetramethyl-para-phenylene diamine tetrafluoroborate [TMPD-BF4]
diffusion coefficient DTMPD-BF4 ([3]; 2.1 mM TMPD-BF4 in PBS pH 7.4, 37° C., Randles-Ševčík, 3 mm gold electrode): 1×10^−5 cm^2 s^−1
standard electrochemical rate constant ks ([3]; TMPD^+• reduction at gold macroelectrode, fitted by simulation): ≥ 0.025 cm/s
standard electrode potential E0 ([3]; TMPD^+•/TMPD couple, fitted by simulation): 0.013 (±0.001) V vs. SCE

Source: patent US11834697B2, “Electrochemical recognition and quantification of cytochrome c oxidase expression in bacteria” (OXFORD UNIVERSITY INNOVATION LIMITED, priority 2017, dated 2023)
